This test deals with T1, TrkA (Homo sapiens, UniProt P04629).
T1 construct: purchased Invitrogen PV3144
T1 sequence (P04629 33-796): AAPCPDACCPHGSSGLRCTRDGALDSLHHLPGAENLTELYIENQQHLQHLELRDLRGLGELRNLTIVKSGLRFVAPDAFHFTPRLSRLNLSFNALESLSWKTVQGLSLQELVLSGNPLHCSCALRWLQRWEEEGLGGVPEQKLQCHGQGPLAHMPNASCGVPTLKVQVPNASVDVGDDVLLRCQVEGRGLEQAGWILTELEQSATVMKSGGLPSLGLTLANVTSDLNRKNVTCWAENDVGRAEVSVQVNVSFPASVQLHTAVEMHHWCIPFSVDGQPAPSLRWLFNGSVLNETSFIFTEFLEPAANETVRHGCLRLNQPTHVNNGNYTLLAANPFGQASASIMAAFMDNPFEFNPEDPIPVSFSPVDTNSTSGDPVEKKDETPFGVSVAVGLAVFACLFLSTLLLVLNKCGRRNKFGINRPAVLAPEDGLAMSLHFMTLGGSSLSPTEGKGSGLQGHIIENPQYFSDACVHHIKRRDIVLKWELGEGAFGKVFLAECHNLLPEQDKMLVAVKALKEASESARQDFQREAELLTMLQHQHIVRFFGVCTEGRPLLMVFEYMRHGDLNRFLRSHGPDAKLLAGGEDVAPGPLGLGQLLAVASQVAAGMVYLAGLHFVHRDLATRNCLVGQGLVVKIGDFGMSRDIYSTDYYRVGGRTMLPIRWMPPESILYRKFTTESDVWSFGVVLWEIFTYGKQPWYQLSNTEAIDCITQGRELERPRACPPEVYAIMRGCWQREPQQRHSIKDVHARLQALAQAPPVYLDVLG
In words: TrkA kinase inhibition, HTRF assay. Format: biochemical. Conditions: LCK peptide substrate 125 nM, TrkA 2-10 nM pre-incubated with ATP 200 μM. How it is done:
TrkA, TrkB, and TrkC enzymes were obtained from Invitrogen (as catalog numbers PV3144, PV3616, and PV3617, respectively). The ability of a compound to inhibit the enzymatic activity of the TrkA, TrkB, and TrkC enzymes was determined in separate assays. Enzyme activity was measured in an HTRF® (homogeneous time resolved fluorescence) assay, which detects enzymatic phosphorylation of a biotinylated synthetic peptide substrate (an LCK peptide analog, biotin-ahx-GAEEEIYAAFFA, from Genemed Synthesis). Phosphorylation is assessed by HTRF® in the presence of an anti-phosphotyrosine antibody conjugated to Eu^3+ cryptate (Cisbio) as donor fluorophore, and streptavidin conjugated to allophycocyanin (ProZyme) as acceptor fluorophore. The HTRF® signal was detected at two different wavelengths (620 nm and 665 nm) which were used to calculate the fluorescence ratio.
Each enzyme was titrated to a concentration optimized to ensure accurate measurement of the initial reaction rate. To allow the Trk enzymes to undergo activation and auto-phosphorylation, a 20 minute pre-incubation with ATP was carried out (at twice the final targeted enzyme and ATP concentration) prior to addition of test compound and the peptide substrate.
TrkA in vitro assays were performed by pre-incubating TrkA (2-10 nM) with ATP (200 μM) for 20 minutes at ambient temperature in 50 mM HEPES pH 7.4, 10 mM MgCl2, 2 mM MnCl2, 100 μM Na3VO4, 1 mM dithiothreitol, 0.01% BSA (bovine serum albumin). Then, to the activated Trk enzyme mixture was added the test compound in 2% dimethyl sulfoxide. After 10 minutes, the peptide substrate (125 nM) was added. After 1 hour, enzyme reactions were terminated by addition of equal reaction volumes of detection/stop reagent (containing 0.2 μg/mL anti-phosphotyrosine monoclonal antibody labeled with europium from Cisbio (catalog# PT66-K), and 4 μg/mL PhycoLink® Streptavidin-Allophycocyanin conjugate from ProZyme (catalog# PJ25S) in 60 mM EDTA in 40 mM HEPES pH 7.4, 480 mM KF, 0.01% Tween® 20 and 0.1% BSA bovine serum albumin) Reaction plates were stored at 4° C. overnight before reading the fluorescence ratio signal on a PerkinElmer EnVision™ fluorescence detector. Individual reaction wells were stopped at time points to obtain reaction rates. The test inhibitor compounds were assayed in duplicate, at half-log serial dilutions over a range of concentrations (e.g. starting at 50 μM or 5 μM as the high compound concentration). The percent Trk enzyme inhibition was calculated from the initial rates of the inhibited reactions relative to the uninhibited control. IC50 values were calculated by fitting the inhibition percent to the concentration of inhibitor [I] in the assay in equation 1 below, to solve for the IC50.
Inhibition %=100[I]/([I]+[IC50]) equation 1
(In general: In TR-FRET formats the signal depends on donor and acceptor labels being close together.)
Regarding “4-{3-amino-4-[(1,1,1-trifluoropropan-2-yl)oxy]-1H-indazol-6-yl}-2-(4-cyclopentylpiperazin-1-yl)benzamide [Example 102]”, the IC50 – broadly, the midpoint of a concentration-inhibition curve – was found to be 19.2 nM.
To `CC(=O)N1CCN(c2cc(-c3cc(OC4CCOCC4)c4c(N)n[nH]c4c3)ccc2C(N)=O)CC1` [Example 4, 2-(4-acetylpiperazin-1-yl)-4-[3-amino-4-(tetrahydro-2H-pyran-4-yloxy)-1H-indazol-6-yl]benzamide] belongs 147 nM.
To `NC(=O)c1ccc(-c2cc(OC3CCOCC3)c3c(N)n[nH]c3c2)cc1N1CCN(CCN2CCOCC2)CC1` [Example 5, 4-[3-amino-4-(tetrahydro-2H-pyran-4-yloxy)-1H-indazol-6-yl]-2-{4-[2-(morpholin-4-yl)ethyl]piperazin-1-yl}benzamide] belongs 37 nM; to `NC(=O)c1ccc(-c2cc(OC3CCOCC3)c3c(N)n[nH]c3c2)cc1N1CCN(CCCO)CC1` [Example 7, 4-[3-amino-4-(tetrahydro-2H-pyran-4-yloxy)-1H-indazol-6-yl]-2-[4-(3-hydroxypropyl)piperazin-1-yl]benzamide], 706 nM.
In turn, `NC(=O)c1ccc(-c2cc(OC3CCOCC3)c3c(N)n[nH]c3c2)cc1N1CCN(c2cncc(Cl)c2)CC1` [Example 8, 4-[3-amino-4-(tetrahydro-2H-pyran-4-yloxy)-1H-indazol-6-yl]-2-[4-(5-chloropyridin-3-yl)piperazin-1-yl]benzamide] yielded an IC50 of 4.42 nM.
Next, `CN1CCC(N2CCN(c3cc(-c4cc(OC5CCOCC5)c5c(N)n[nH]c5c4)ccc3C(N)=O)CC2)CC1` [Example 9, 4-[3-amino-4-(tetrahydro-2H-pyran-4-yloxy)-1H-indazol-6-yl]-2-[4-(1-methylpiperidin-4-yl)piperazin-1-yl]benzamide]: 3460 nM; `NC(=O)c1ccc(-c2cc(OC3CCOCC3)c3c(N)n[nH]c3c2)cc1N1CCN(CCc2ccccn2)CC1` [Example 10, 4-[3-amino-4-(tetrahydro-2H-pyran-4-yloxy)-1H-indazol-6-yl]-2-{4-[2-(pyridin-2-yl)ethyl]piperazin-1-yl}benzamide]: 136 nM.
To `NC(=O)c1ccc(-c2cc(OC3CCOCC3)c3c(N)n[nH]c3c2)cc1N1CCN(CCOCCO)CC1` [Example 11, 4-[3-amino-4-(tetrahydro-2H-pyran-4-yloxy)-1H-indazol-6-yl]-2-{4-[2-(2-hydroxyethoxy)ethyl]piperazin-1-yl}benzamide] belongs 208 nM; to `NC(=O)c1ccc(-c2cc(OC3CCOCC3)c3c(N)n[nH]c3c2)cc1N1CCN(c2cccc(Cl)c2)CC1` [Example 12, 4-[3-amino-4-(tetrahydro-2H-pyran-4-yloxy)-1H-indazol-6-yl]-2-[4-(3-chlorophenyl)piperazin-1-yl]benzamide], 2.9 nM; to `CC(=O)c1ccc(-c2cc(OC3CCOCC3)c3c(N)n[nH]c3c2)cc1N1CCN(c2ccccc2)CC1` [Example 13, 1-{4-[3-amino-4-(tetrahydro-2H-pyran-4-yloxy)-1H-indazol-6-yl]-2-(4-phenylpiperazin-1-yl)phenyl}ethanone], 62.9 nM.
To `CC(=O)c1ccc(-c2cc(OC3CCOCC3)c3c(N)n[nH]c3c2)cc1N1CCN(C2CC2)CC1` [Example 14, 1-{4-[3-amino-4-(tetrahydro-2H-pyran-4-yloxy)-1H-indazol-6-yl]-2-(4-cyclopropylpiperazin-1-yl)phenyl}ethanone] belongs 110 nM; to `CC(=O)c1ccc(-c2cc(OC3CCOCC3)c3c(N)n[nH]c3c2)cc1N1CCN(c2ncccn2)CC1` [Example 15, 1-{4-[3-amino-4-(tetrahydro-2H-pyran-4-yloxy)-1H-indazol-6-yl]-2-[4-(pyrimidin-2-yl)piperazin-1-yl]phenyl}ethanone], 9.59 nM.
In the case of `CC(=O)c1ccc(-c2cc(OC3CCOCC3)c3c(N)n[nH]c3c2)cc1N1CCN(c2cccnc2)CC1` [Example 16, 1-{4-[3-amino-4-(tetrahydro-2H-pyran-4-yloxy)-1H-indazol-6-yl]-2-[4-(pyridin-3-yl)piperazin-1-yl]phenyl}ethanone], the IC50 turned out to be 29.6 nM.
Next, `CC(=O)c1ccc(-c2cc(OC3CCOCC3)c3c(N)n[nH]c3c2)cc1N1CCN(c2ccc(F)cc2)CC1` [Example 17, 1-{4-[3-amino-4-(tetrahydro-2H-pyran-4-yloxy)-1H-indazol-6-yl]-2-[4-(4-fluorophenyl)piperazin-1-yl]phenyl}ethanone]: 13.4 nM.
To `CC(=O)c1ccc(-c2cc(OC3CCOCC3)c3c(N)n[nH]c3c2)cc1N1CCN(CCC(C)(C)C)CC1` [Example 18, 1-{4-[3-amino-4-(tetrahydro-2H-pyran-4-yloxy)-1H-indazol-6-yl]-2-[4-(3,3-dimethylbutyl)piperazin-1-yl]phenyl}ethanone] belongs 36.4 nM.
To `CC(=O)c1ccc(-c2cc(OC3CCOCC3)c3c(N)n[nH]c3c2)cc1N1CCN(C2CCCCC2)CC1` [Example 19, 1-{4-[3-amino-4-(tetrahydro-2H-pyran-4-yloxy)-1H-indazol-6-yl]-2-(4-cyclohexylpiperazin-1-yl)phenyl}ethanone] belongs 38.1 nM; to `CC(=O)c1ccc(-c2cc(OC3CCOCC3)c3c(N)n[nH]c3c2)cc1N1CCN(C(=O)C2CC2)CC1` [Example 20, 1-{4-[3-amino-4-(tetrahydro-2H-pyran-4-yloxy)-1H-indazol-6-yl]-2-[4-(cyclopropylcarbonyl)piperazin-1-yl]phenyl}ethanone], 101 nM; to `CC(=O)c1ccc(-c2cc(OC3CCOCC3)c3c(N)n[nH]c3c2)cc1N1CCN(c2nccs2)CC1` [Example 21, 1-{4-[3-amino-4-(tetrahydro-2H-pyran-4-yloxy)-1H-indazol-6-yl]-2-[4-(1,3-thiazol-2-yl)piperazin-1-yl]phenyl}ethanone], 33.3 nM.
For `CC(O)c1ccc(-c2cc(OC3CCOCC3)c3c(N)n[nH]c3c2)cc1N1CCN(c2cccnc2)CC1` (stereo not shown) [Example 22, 1-{4-[3-amino-4-(tetrahydro-2H-pyran-4-yloxy)-1H-indazol-6-yl]-2-[4-(pyridin-3-yl)piperazin-1-yl]phenyl}ethanol], the IC50 amounted to 254 nM.
Take `Nc1n[nH]c2cc(-c3ccc(C(=O)NC4CC4)c(N4CCN(c5cccnc5)CC4)c3)cc(OC3CCOCC3)c12` [Example 24, 4-[3-amino-4-(tetrahydro-2H-pyran-4-yloxy)-1H-indazol-6-yl]-N-cyclopropyl-2-[4-(pyridin-3-yl)piperazin-1-yl]benzamide]: half-maximal inhibition (IC50) was put at 20.4 nM.
`CC(C)(C)C(=O)N1CCN(c2cc(-c3cc(OC4CCOCC4)c4c(N)n[nH]c4c3)ccc2C(=O)NC2CC2)CC1` [Example 25, 4-[3-amino-4-(tetrahydro-2H-pyran-4-yloxy)-1H-indazol-6-yl]-N-cyclopropyl-2-[4-(2,2-dimethylpropanoyl)piperazin-1-yl]benzamide] gave an IC50 of 188 nM.
To `CC(Oc1cc(-c2ccc(C(=O)NC3CC3)c(N3CCN(c4ccccc4)CC3)c2)cc2[nH]nc(N)c12)C(F)(F)F` (stereo not shown) [Example 26, 4-{3-amino-4-[(1,1,1-trifluoropropan-2-yl)oxy]-1H-indazol-6-yl}-N-cyclopropyl-2-(4-phenylpiperazin-1-yl)benzamide] belongs 58.1 nM; to `CC(Oc1cc(-c2ccc(C(=O)NC3CC3)c(N3CCN(C4CC4)CC3)c2)cc2[nH]nc(N)c12)C(F)(F)F` (stereo not shown) [Example 27, 4-{3-amino-4-[(1,1,1-trifluoropropan-2-yl)oxy]-1H-indazol-6-yl}-N-cyclopropyl-2-(4-cyclopropylpiperazin-1-yl)benzamide], 251 nM.
Next, `CC(Oc1cc(-c2ccc(C(=O)NC3CC3)c(N3CCN(c4cccnc4)CC3)c2)cc2[nH]nc(N)c12)C(F)(F)F` (stereo not shown) [Example 28, 4-{3-amino-4-[(1,1,1-trifluoropropan-2-yl)oxy]-1H-indazol-6-yl}-N-cyclopropyl-2-[4-(pyridin-3-yl)piperazin-1-yl]benzamide]: 41 nM; `CNC(=O)c1ccc(-c2cc(OC3CCOCC3)c3c(N)n[nH]c3c2)cc1N1CCN(c2cccnc2)CC1` [Example 31, 4-[3-amino-4-(tetrahydro-2H-pyran-4-yloxy)-1H-indazol-6-yl]-N-methyl-2-[4-(pyridin-3-yl)piperazin-1-yl]benzamide]: 42.1 nM.

(Values after patent publication US20160376240A1, “6 Phenyl or 6 Pyridin 3 YL Indazole Derivatives and Methods of Use” (ABBVIE INC., priority 2014, published 2016).)
